Reference: PMC9405216, “Antimicrobial and Cytotoxic Cyathane-Xylosides from Cultures of the Basidiomycete Dentipellis fragilis” (Antibiotics, 2022)
≈ marks a conversion by molar mass, not a printed value.

Key:
Assay type in all cases: cell-based
[1] = test system: L929 (ACC2) mouse fibroblasts; assay: MTT cytotoxicity test, L929; conditions: 120 h, five days incubation, n.c. = no cytotoxicity, read-out: IC50
Text: (§1) A panel of mammalian cell lines was used to determine the cytotoxicity of the compounds following a previously published protocol. The assay was initially performed using the sensitive cell lines KB3.1 (human endocervical adenocarcinoma) and L929 (mouse fibroblasts). Active compounds were further tested using the cell lines MCF-7 (human breast adenocarcinoma), PC-3 (human prostate adenocarcinoma), SKOV-3 (ovarian carcinoma), A549 (human lung carcinoma), and A431 (human squamous cell carcinomas) (Table 6). The cell lines A549, KB 3.1, and L929 were cultured in DMEM (Gibco, provided by Thermo Fisher Scientific), PC-3 in F12-K (Gibco) and MC-7, and SKOV-3 and A431 in RPMI (Gibco). With the exception of A549, all cell lines were supplemented with 10% bovine serum (Gibco). All cell lines were cultured at 37 °C. The L929 and KB 3.1 cell lines were cultivated under an atmosphere of 10% (v/v) carbon dioxide. Cytotoxicity tests were then carried out using MTT (3-(4,5-dimethylthiazol-2-yl)-2,5-diphenyltetrazolium bromide) in 96-well microtiter plates. Serial dilutions of the compounds (60 µL aliquots, each with an initial concentration of 1 mg/mL) were added into 120 µL aliquots of cell suspension (50000 cells/mL) in the 96-well plates. These were incubated for five days, after which an MTT assay was performed. The absorbance was taken at 590 nm using an Elisa plate reader (Victor, Überlingen, Germany). The half-maximal inhibitory concentration (IC50), the concentration at which cell growth inhibition was 50% of the control, was calculated as described elsewhere.

[2] = test system: Pichia anomala (DSM 6766); assay: Serial dilution MIC assay, Pichia anomala; conditions: Hansenula anomala, DSM6766, serial dilution 67-0.5 µg/mL, overnight incubation, n.i. = no inhibition, read-out: MIC
Procedure: (§2) Serial dilution assays in 96-well microtiter plates were performed according to our standard protocol in order to determine the minimum inhibitory concentrations (MICs) of pure isolated compounds against different microorganisms. Essentially, aliquots of compounds 1–5 and 9 (20 µL), each with an initial concentration of 1 mg/mL, were diluted in MeOH together with the respective microorganisms to concentrations ranging between 67 µg/mL and 0.5 µg/mL in the 96-well plates, followed by overnight incubation. The MIC was then determined as the lowest concentration at which no growth of the test organism was observed. A broad spectrum of clinically approved test pathogens and sensitivity indicator strains were used in the assays (Table 4 and Table 5). Ciprofloxacin, oxytetracycline, kanamycin, and gentamycin were used as positive controls against bacterial pathogens, while nystatin was used as the positive control against fungi.

[3] = test system: Mucor hiemalis (DSM 2656); assay: Serial dilution MIC assay, Mucor hiemalis; conditions: DSM2656, serial dilution 67-0.5 µg/mL, overnight incubation, n.i. = no inhibition, read-out: MIC
Procedure: as §2

[4] = test system: Schizosaccharomyces pombe (DSM 70572); assay: Serial dilution MIC assay, Schizosaccharomyces pombe; conditions: DSM70572, serial dilution 67-0.5 µg/mL, overnight incubation, n.i. = no inhibition, read-out: MIC
Procedure: as §2

[5] = test system: Escherichia coli (DSM 1116); assay: Serial dilution MIC assay, Escherichia coli; conditions: DSM1116, serial dilution 67-0.5 µg/mL, overnight incubation, n.i. = no inhibition, read-out: MIC
Procedure: as §2

[6] = test system: KB3.1 (ACC158) human endocervical adenocarcinoma; assay: MTT cytotoxicity test, KB3.1; conditions: KB 3-1, 120 h, KB3.1 human endocervical adenocarcinoma, five days incubation, n.c. = no cytotoxicity, read-out: IC50
Text: as §1

[7] = test system: Actinobacter baumannii (DSM 30008); assay: Serial dilution MIC assay, Actinobacter baumannii; conditions: serial dilution 67-0.5 µg/mL, overnight incubation, n.i. = no inhibition, read-out: MIC
Procedure: as §2

[8] = test system: tested microorganisms (bacteria and fungi); assay: Serial dilution MIC assays, whole panel of tested strains; conditions: range over most tested bacterial and fungal strains; read-out: minimum inhibitory concentrations (MICs) against most tested strains
Procedure: as §2

[9] = test system: SKOV-3 (ovarian carcinoma); assay: MTT cytotoxicity test, SKOV-3; conditions: Homo sapiens, SK-OV-3, 120 h, five days incubation
Text: as §1

[10] = test system: Chromobacterium violaceum (DSM 30191); assay: Serial dilution MIC assay, Chromobacterium violaceum; conditions: DSM30191, serial dilution 67-0.5 µg/mL, overnight incubation, n.i. = no inhibition, read-out: MIC
Procedure: as §2

[11] = test system: Pseudomonas aeruginosa (DSM PA14); assay: Serial dilution MIC assay, Pseudomonas aeruginosa; conditions: serial dilution 67-0.5 µg/mL, overnight incubation, n.i. = no inhibition
Procedure: as §2

[12] = test system: A549 (ACC107) human lung carcinoma; assay: MTT cytotoxicity test, A549; conditions: Homo sapiens, 120 h, five days incubation
Text: as §1

[13] = test system: Candida albicans (DSM 1665); assay: Serial dilution MIC assay, Candida albicans; conditions: DSM1665, serial dilution 67-0.5 µg/mL, overnight incubation, n.i. = no inhibition, read-out: MIC
Procedure: as §2

[14] = test system: Bacillus subtilis (DSM 10); assay: Serial dilution MIC assay, Bacillus subtilis; conditions: DSM10, serial dilution 67-0.5 µg/mL, overnight incubation, n.i. = no inhibition, read-out: MIC
Procedure: as §2

[15] = test system: PC-3 (ACC465) human prostate adenocarcinoma; assay: MTT cytotoxicity test, PC-3; conditions: 120 h, PC-3 human prostate adenocarcinoma, five days incubation
Text: as §1

[16] = test system: MCF-7 (A115) human breast adenocarcinoma; assay: MTT cytotoxicity test, MCF-7; conditions: MCF7, 120 h, MCF-7 human breast adenocarcinoma, five days incubation
Text: as §1

[17] = test system: Staphylococcus aureus (DSM 346); assay: Serial dilution MIC assay, Staphylococcus aureus; conditions: DSM346, serial dilution 67-0.5 µg/mL, overnight incubation, n.i. = no inhibition, read-out: MIC
Procedure: as §2

[18] = test system: other cell lines (MCF-7, A549, PC-3, SKOV-3, A431); assay: MTT cytotoxicity test, other cell lines of the panel; conditions: range over the cell lines other than L929 and KB3.1 (Table 6)
Text: as §1, with “These were incubated for five days, after which an MTT assay was performed.” left out, “The half-maximal inhibitory concentration (IC50), the concentration at which cell growth inhibition was 50% of the control, was calculated as described elsewhere.” left out

[19] = test system: Rhodotorula glutinis (DSM 10134); assay: Serial dilution MIC assay, Rhodotorula glutinis; conditions: DSM10134, serial dilution 67-0.5 µg/mL, overnight incubation, n.i. = no inhibition, read-out: MIC
Procedure: as §2

[20] = test system: A431 (ACC91) human squamous cell carcinomas; assay: MTT cytotoxicity test, A431; conditions: A-431, 120 h, five days incubation
Text: as §1

[21] = test system: Mycolicibacterium smegmatis (ATCC 700084); assay: Serial dilution MIC assay, Mycolicibacterium smegmatis; conditions: ATCC700084, serial dilution 67-0.5 µg/mL, overnight incubation, n.i. = no inhibition, read-out: MIC
Procedure: as §2

CC(C)C1=C2[C@H]3CC=C(C=O)[C@@H]4[C@H](O[C@@H]5OC[C@@H](O)C(=O)[C@@]54O)[C@]3(C)CC[C@@]2(C)CC1 [Compound 9, striatal D]
IC50 [1]: 800 nM
MIC [2]: 33.3 µg/mL (≈ 77.3 µM)
MIC [3]: 2.1 µg/mL (≈ 4.88 µM)
MIC [4]: 4.2 µg/mL (≈ 9.76 µM)
MIC [5]: 66.6 µg/mL (≈ 155 µM)
IC50 [6]: 400 nM
MIC [7]: 66.6 µg/mL (≈ 155 µM)
MIC [8]: 1 to 66.6 µg/mL (≈ 2.32 to 155 µM)
IC50 [9]: 100 nM
MIC [10]: 16.6 µg/mL (≈ 38.6 µM)
MIC [11]: n.i.
IC50 [12]: 100 nM
MIC [13]: 33.3 µg/mL (≈ 77.3 µM)
MIC [14]: 1 µg/mL (≈ 2.32 µM)
IC50 [15]: 400 nM
IC50 [16]: 100 nM
MIC [17]: 2.1 µg/mL (≈ 4.88 µM)
IC50 [18]: 100 to 1000 nM
MIC [19]: 1 µg/mL (≈ 2.32 µM)
IC50 [20]: 1000 nM
MIC [21]: 33.3 µg/mL (≈ 77.3 µM)
